Test [1] has as its system isolated guinea pig gallbladder. Put plainly: Functional activity in isolated guinea pig gallbladder preparation. In kind it is cell-based. The conditions noted are these: for activation at 30 µM / activation at 1 µM: Cavia porcellus; for activation at 1 µM: 1 × 10^-6 M test compound, read-out: %Contraction (1 × 10^-6 M).
Another test relates to rat gastric emptying. Put plainly: Rat gastric emptying assay. In kind it is in vivo. The conditions noted are these: vehicle 66. Here is the method:
7. RAT GASTRIC EMPTYING PROTOCOL
Methyl Cellulose (MC) Test Meal
1. Disperse MC in water at 80° C. at a final concentration of 1.5% under continuous stirring. Cool to room temperature.
2. Add Phenol Red (50 mg/100) to solution.
3. Keep solution stirring during entire experiment.
1. Food deprive animals for 18 hours.
2. Inject test drug/prop. glycol or prop. glycol alone intraperitoneally.
3. After 5 minutes, gavage 1.5 mL of Pheno Red/MC solution
1. After 20 minutes, decapitate animal
2. Clamp stomach at the pylorus and cardia ends, and rinse in 0.9% NaCl.
3. Place stomach in 100 mL of 0.1N NaOH, cut into small pieces, and homogenize for 30 seconds.
4. Let settle at room temperature for 60 minutes.
5. In centrifuge tube, add 5 mL of supernatant and 0.5 mL of trichloroacetic acid (29% w/v), and centrifuge at 2,800 rpm for 20 minutes.
6. Decant supernatant, and add 4 mL of 0.5N NaOH and read absorbance at a wavelength of 560 nm.
Calculations [formula] The standard stomach is determined from the phenol red recovered in stomachs of rats decapitated immediately after intragastric infusion of MC/phenol red.

Setting [2] is: delivered at 30 μM, read-out: Isolated guinea pig gallbladder: % contraction.
Where [3] appears, read: intraperitoneally at 0.1 μmoles/kg.
Where [4] appears, read: expressed as % CCK-induced maximal response.
Where [5] appears, read: 3 × 10^-5 M test compound, expressed as % CCK-induced maximal response, read-out: % Contraction (3 × 10^-5 M).

Where two headings read alike, the source gives them in different places. No end group written: not given here.

The values that follow come from patent US5859007A, “CCK or gastrin modulating benzo [b][1,4] diazepines derivatives” (Glaxo Wellcome Inc., priority 1994, dated 1999).

For `COc1ccc(N(C(=O)CN2C(=O)C(Cc3n[nH]c4ccccc34)C(=O)N(c3ccccc3)c3ccccc32)C(C)C)cc1` (centres unmarked) [Example 31, 2-[3-(1H-Indazol-3-ylmethyl)-2,4-dioxo-5-phenyl-2,3,4,5-tetrahydro-benzo[b][1,4]diazepin-1-yl]-N-isopropyl-N-(4-methoxy-phenyl) acetamide], the activation at 30 µM in test [1] (setting [2]) amounted to 87%. Further, in the test on rat gastric emptying (setting [3]), the “rat gastric emptying: % emptying” value was determined as 6%. Turning to `COc1ccc(N(C(=O)CN2C(=O)C(Cc3n[nH]c4ccccc34)C(=O)N(c3ccccn3)c3ccccc32)C(C)C)cc1` (centres unmarked) [Example 49, 2-[3-(1H-Indazol-3-ylmethyl)-2,4-dioxo-5-pyrid-2-yl-2,3,4,5-tetrahydro-benzo[b][1,4]diazepin-1-yl]-N-isopropyl-N-(4-methoxy-phenyl) acetamide], in test [1] (setting [4]), the activation at 1 µM is 75%. Moreover, the values for the activation at 30 µM in test [1] (setting [5]) and in test [1] (setting [2]) were 91% and 100%, respectively. In the test with rat gastric emptying (setting [3]), the “rat gastric emptying: % emptying” value amounted to 2.5%. As to `CC(C)N(C(=O)CN1C(=O)C(C)(CCCc2ccccc2)C(=O)N(c2ccccc2)c2ccccc21)c1ccccc1` (centres unmarked) [Example 12, N-Isopropyl-2-[3-methyl-2,4-dioxo-5-phenyl-3-(3-phenyl-propyl)-2,3,4,5-tetrahydro-benzo[b][1,4]diazepin-1-yl]-N-phenyl acetamide], in test [1] (setting [4]), the activation at 1 µM was 19%. Consider `COc1ccc(N(C(=O)CN2C(=O)C(Cc3n[nH]c4ccccc34)C(=O)N(c3cccs3)c3ccccc32)C(C)C)cc1` (centres unmarked) [Example 59, 2-[3-(1H-Indazol-3-ylmethyl)-2,4-dioxo-5-thiophen-2-yl-2,3,4,5-tetrahydro-benzo[b][1,4]diazepin-1-yl]-N-isopropyl-N-(4-methoxy-phenyl)-acetamide], for which the activation at 1 µM in test [1] (setting [4]) worked out at 100%. In test [1] (setting [5]), the activation at 30 µM was found to be 102%.

For `CC(C)N(C(=O)CN1C(=O)C(Cc2n[nH]c3ccccc23)C(=O)N(c2cccnc2)c2ccccc21)c1ccccc1` (centres unmarked) [Example 83, 2-[3-(1H-Indazol-3-ylmethyl)-2,4-dioxo-5-pyridin-3-yl-2,3,4,5-tetrahydrobenzo[b][1,4]diazepin-1-yl]-N-isopropyl-N-phenyl acetamide], the activation at 1 µM in test [1] (setting [4]) is 85%. Further, in test [1] (setting [5]), the activation at 30 µM worked out at 97%. With `CC(C)N(C(=O)CN1C(=O)C(C)(CC(=O)Nc2ccccc2N)C(=O)N(c2ccccc2)c2ccccc21)c1ccccc1` (centres unmarked) [Example 9, 2-[3-(2-Amino-phenylcarbamoylmethyl)-3-methyl-2,4-dioxo-5-phenyl-2,3,4,5-tetrahydro-benzo[b][1,4]diazepin-1-yl]-N-isopropyl-N-phenyl acetamide], the activation at 1 µM in test [1] (setting [4]) is 31%. On the same count and under the same terms, in the case of `COc1ccc(N(C(=O)CN2C(=O)C(Cc3nn(Cc4ccccc4)c4ccccc34)(OC)C(=O)N(c3ccccc3)c3ccccc32)C(C)C)cc1` (centres unmarked) [Example 42, 2-[3-(1-Benzyl-1H-Indazol-3-ylmethyl)-3-methoxy-2,4-dioxo-5-phenyl-2,3,4,5-tetrahydro-benzo[b][1,4]diazepin-1-yl]-N-isopropyl-N-(4-methoxy-phenyl) acetamide] it was 16%. As for “CCK8: the Cterminal octapeptide of CCK (DYMGWMDF; ends and bridges not checked; UniProt P06307 96-103, looked up) [reference compound]”, the “Isolated guinea pig gallbladder: % contraction” value in test [1] (delivered at 1 μM) is given as 100%. In the test with rat gastric emptying (CCK-8 intraperitoneally at 30 nmoles/kg), the “rat gastric emptying: % emptying” value came out at 0%.

In the case of `COc1ccc(N(C(=O)CN2C(=O)C(Cc3nn(C)c4ccccc34)C(=O)N(c3ccccc3)c3ccccc32)C(C)C)cc1` (centres unmarked) [Example 44, N-Isopropyl-N-(4-methoxy-phenyl)-2-[3-(1-methyl-1H-indazol-3-ylmethyl)-2,4-dioxo-5-phenyl-2,3,4,5-tetrahydro-benzo[b][1,4]diazepin-1-yl]acetamide], in test [1] (setting [4]), the activation at 1 µM was found to be 57%. In addition, the activation at 30 µM in test [1] (setting [5]) was 83%.
